From US20090099169A1, “Benzofuran Compounds As EP1 Receptor Antagonists” (GLAXO GROUP LIMITED, priority 2006, published 2009)
Where a name gives a salt, the structure may show the parent alone.

Assays:
human EP3 receptor = target: T1, human EP3 receptor (Homo sapiens, UniProt P43115); assay: human EP3 calcium mobilisation assay; format: cell-based; conditions: CHO-K1 cells, antagonism of PGE2; averages of a number of experiments; read-out: functional pKi value (human EP3 calcium mobilisation assay) (converted)
T1 construct: expressed in transfected cells; host or cells: CHO-K1
T1 sequence (P43115 1-390): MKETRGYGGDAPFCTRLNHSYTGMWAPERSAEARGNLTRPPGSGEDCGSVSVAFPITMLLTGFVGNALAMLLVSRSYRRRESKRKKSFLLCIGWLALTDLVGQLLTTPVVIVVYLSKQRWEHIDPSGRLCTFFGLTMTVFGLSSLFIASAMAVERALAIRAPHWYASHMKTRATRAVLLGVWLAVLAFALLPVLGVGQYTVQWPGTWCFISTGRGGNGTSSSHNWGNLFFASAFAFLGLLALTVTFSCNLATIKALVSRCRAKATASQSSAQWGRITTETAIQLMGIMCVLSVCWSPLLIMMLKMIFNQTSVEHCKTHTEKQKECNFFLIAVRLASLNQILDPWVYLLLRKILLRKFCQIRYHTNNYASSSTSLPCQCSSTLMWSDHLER
Protocol: Briefly, the antagonist properties of compounds are assessed by their ability to inhibit the mobilisation of intracellular calcium ([Ca^2+]i) in response to activation of EP1 or EP3 receptors by the natural agonist hormone prostaglandin E2 (PGE2). Increasing concentrations of antagonist reduce the amount of calcium that a given concentration of PGE2 can mobilise. The net effect is to displace the PGE2 concentration-effect curve to higher concentrations of PGE2. The amount of calcium produced is assessed using a calcium-sensitive fluorescent dye such as Fluo-4, AM and a suitable instrument such as a Fluorimetric Imaging Plate Reader (FLIPR). Increasing amounts of [Ca^2+]i produced by receptor activation increase the amount of fluorescence produced by the dye and give rise to an increasing signal. The signal may be detected using the FLIPR instrument and the data generated may be analysed with suitable curve-fitting software.
The human EP1 or EP3 calcium mobilisation assay (hereafter referred to as ‘the calcium assay’) utilises Chinese hamster ovary-K1 (CHO-K1) cells into which a stable (PCIN; BioTechniques 20 (1996): 102-110) vector containing either EP1 or EP3 cDNA has previously been transfected. Cells are cultured in suitable flasks containing culture medium such as DMEM:F-12 supplemented with 10% v/v foetal calf serum, 2 mM L-glutamine, 0.25 mg/ml geneticin, 100 μM flurbiprofen and 10 μg/ml puromycin.
For assay, cells are harvested using a proprietary reagent that dislodges cells such as Versene. Cells are re-suspended in a suitable quantity of fresh culture media for introduction into a 384-well plate. Following incubation for 24 hours at 37° C. the culture media is replaced with a medium containing Fluo-4 and the detergent pluronic acid, and a further incubation takes place. Concentrations of compounds are then added to the plate in order to construct concentration-effect curves. This may be performed on the FLIPR in order to assess the agonist properties of the compounds. Concentrations of PGE2 are then added to the plate in order to assess the antagonist properties of the compounds.
The data so generated may be analysed by means of a computerised curve-fitting routine. The concentration of compound that elicits a half-maximal inhibition of the calcium mobilisation induced by PGE2 (pIC50) may then be estimated.

human EP1 receptor [1] = target: T2, human EP1 receptor (Homo sapiens, UniProt P34995); assay: human EP1 calcium mobilisation assay; format: cell-based; parameters: expressed in transfected cells; conditions: CHO-K1 cells, antagonism of PGE2; averages of a number of experiments; read-out: functional pKi value (human EP1 calcium mobilisation assay) (converted)
T2 sequence (P34995 1-402): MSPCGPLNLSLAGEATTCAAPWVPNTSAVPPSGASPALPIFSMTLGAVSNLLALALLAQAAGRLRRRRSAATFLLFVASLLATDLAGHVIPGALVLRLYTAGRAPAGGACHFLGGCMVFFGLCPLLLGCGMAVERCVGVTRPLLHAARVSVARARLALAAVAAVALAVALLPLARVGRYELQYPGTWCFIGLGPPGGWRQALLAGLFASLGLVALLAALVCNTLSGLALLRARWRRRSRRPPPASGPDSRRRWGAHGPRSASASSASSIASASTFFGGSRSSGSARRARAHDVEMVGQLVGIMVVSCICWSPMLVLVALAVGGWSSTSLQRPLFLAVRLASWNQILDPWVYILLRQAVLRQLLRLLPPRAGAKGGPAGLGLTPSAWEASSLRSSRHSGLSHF
How it was run: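 CHO-K1 cells stably transfected with human EP1 or EP3, loaded with Fluo-4 after 24 h culture, treated with compound, then challenged with PGE2. Calcium-driven fluorescence read on FLIPR; pIC50 is half-maximal inhibition of PGE2-induced calcium mobilisation, from curve fitting.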

human EP1 receptor [2] = target: T2, human EP1 receptor; assay: Binding assay for the human prostanoid EP1 receptor (radioligand competition); parameters: expressed in transfected cells; host or cells: CHO-K1 (membranes); conditions: CHO-K1 membranes; [3H]-PGE2 for Examples 1-17, 19, 33, 34, 60 and 61, 3-{2-[5-Bromo-2-(2,4-difluorobenzyloxy)-phenyl]-5-methyl-pyrrol-1-yl}-6-[3H3-methoxy]methoxy-benzoic acid for the remaining; averages of a number of experiments; read-out: pIC50 value (binding assay for the human prostanoid EP1 receptor) (converted)
Protocol: Compound potencies are determined using a radioligand binding assay. In this assay compound potencies are determined from their ability to compete with tritiated prostaglandin E2 ([^3H]-PGE2) for binding to the human EP1 receptor.
This assay utilises Chinese hamster ovary-K1 (CHO-K1) cells into which a stable vector containing the EP1 cDNA has previously been transfected. Cells are cultured in suitable flasks containing culture medium such as DMEM:F-12 supplemented with 10% v/v foetal calf serum, 2 mM L-glutamine, 0.25 mg/ml geneticin, 10 μg/ml puromycin and 10 μM indomethacin.
Cells are detached from the culture flasks by incubation in calcium and magnesium free phosphate buffered saline containing 1 mM disodium ethylenediaminetetraacetic acid (Na2EDTA) and […] indomethacin for 5 min. The cells are isolated by centrifugation at 250×g for 5mins and suspended in an ice cold buffer such as 50 mM Tris, 1 mM Na2EDTA, 140 mM NaCl, 10 μM indomethacin (pH 7.4). The cells are homogenised using a Polytron tissue disrupter (2×10 s burst at full setting), centrifuged at 48,000×g for 20mins and the pellet containing the membrane fraction is washed (optional) three times by suspension and centrifugation at 48,000×g for 20mins. The final membrane pellet is suspended in an assay buffer such as 10 mM 2-[N-morpholino]ethanesulphonic acid, 1 mM Na2EDTA, 10 mM MgCl2 (pH 6). Aliquots are frozen at −80° C. until required.
(§1) For the binding assay the cell membranes, competing compounds and [^3H]-PGE2 (3 nM final assay concentration) are incubated in a final volume of 100 μl for 30 min at 30° C. All reagents are prepared in assay buffer. Reactions are terminated by rapid vacuum filtration over GF/B filters using a Brandell cell harvester. The filters are washed with ice cold assay buffer, dried and the radioactivity retained on the filters is measured by liquid scintillation counting in Packard TopCount scintillation counter.
The data are analysed using non linear curve fitting techniques to determine the concentration of compound producing 50% inhibition of specific binding (IC50).
Alternatively a similar assay may be carried out using 3-{2-[5-Bromo-2-(2,4-difluoro-benzyloxy)-phenyl]-5-methyl-pyrrol-1-yl}-6-[^3H3-methoxy]methoxy-benzoic acid instead of [^3H]-PGE2.
For the binding assay using 3-{2-[5-Bromo-2-(2,4-difluoro-benzyloxy)-phenyl]-5-methyl-pyrrol-1-yl}-6-[^3H3-methoxy]methoxy-benzoic acid instead of [^3H]-PGE2 the assay is carried out using a similar procedure to that described above using [^3H]-PGE2 with the following changes:
as §1, with “The” for “For the binding assay the”, “3-{2-[5-Bromo-2-(2,4-difluoro-benzyloxy)-phenyl]-5-methyl-pyrrol-1-yl}-6-[^3H3-methoxy]methoxy-benzoic acid (0.2” for “[^3H]-PGE2 (3”, “400” for “100”, “45” for “30”, “37°” for “30°”, “water at ambient temperature,” for “ice cold assay buffer,”
The preparation of 3-{2-[5-Bromo-2-(2,4-difluoro-benzyloxy)-phenyl]-5-methyl-pyrrol-1-yl}-6-methoxy-benzoic acid is described in WO 03/101959 and in Hall et al, Biorg. Med. Chem. Lett., 2007, 17, 916-920. The tritiated version may be prepared via conventional routes, e.g. from 3-{2-[5-bromo-2-(2,4-difluoro-benzyloxy)-phenyl]-5-methyl-pyrrol-1-yl}-6-hydroxy-benzoic acid or 3-{2-[5-bromo-2-(2,4-difluoro-benzyloxy)-phenyl]-5-methyl-pyrrol-1-yl}-6-hydroxy-benzoic acid methyl ester.

Row | SMILES | Ki (human EP3 receptor) | Ki (human EP1 receptor [1]) | IC50 (human EP1 receptor [2])
1 | Cc1cc(C(=O)Nc2ccc(CN3CCCC3)cc2)nn1Cc1cc(Br)cc2cc(C(C)C)oc12 [Example 51, 1-{[5-Bromo-2-(1-methylethyl)-1-benzofuran-7-yl]methyl}-5-methyl-N-[4-(1-pyrrolidinylmethyl)phenyl]-1H-pyrazole-3-carboxamidehydrochloride] | 501 to 10000 nM | ≤ 316 nM | ≤ 100 nM
2 | CC(C)c1cc2cc(Cl)cc(Cc3ccc(C(=O)Nc4ccc(CN5CCC(O)CC5)cc4)o3)c2o1 [Example 55, 5-{[5-Chloro-2-(1-methylethyl)-1-benzofuran-7-yl]methyl}-N-{4-[(4-hydroxy-1-piperidinyl)methyl]phenyl}-2-furancarboxamide Hydrochloride] | 501 to 10000 nM | ≤ 316 nM | ≤ 100 nM
3 | CC(C)c1cc2cc(Cl)cc(Cc3ccc(C(=O)Nc4ccc(CO)cc4)o3)c2o1 [Example 72, 5-{[5-Chloro-2-(1-methylethyl)-1-benzofuran-7-yl]methyl}-N-[4-(hydroxymethyl)phenyl]-2-furancarboxamide] | 501 to 10000 nM | ≤ 316 nM | ≤ 100 nM
4 | CC(C)c1cc2cc(Cl)cc(Cc3ccc(C(=O)Nc4ccc(CN5CCCC5)cc4)o3)c2o1 [Example 53, 5-{[5-Chloro-2-(1-methylethyl)-1-benzofuran-7-yl]methyl}-N-[4-(1-pyrrolidinylmethyl)phenyl]-2-furancarboxamide] | 501 to 10000 nM | ≤ 316 nM | ≤ 100 nM
5 | Cc1cc(C(=O)Nc2ccc(CO)cc2)nn1Cc1cc(Br)cc2cc(C(C)C)oc12 [Example 71] | 501 to 10000 nM | ≤ 316 nM | ≤ 100 nM
6 | Cc1cc(C(=O)O)nn1Cc1cc(Cl)cc2cc(C3CCCCC3)oc12 [Example 26, 1-[(5-Chloro-2-cyclohexyl-1-benzofuran-7-yl)methyl]-5-methyl-1H-pyrazole-3-carboxylic Acid] | 501 to 10000 nM | ≤ 316 nM | ≤ 100 nM
7 | CCCc1cc2cc(Cl)cc(Cn3nc(C(=O)O)cc3C)c2o1 [Example 21, 1-[(5-chloro-2-propyl-1-benzofuran-7-yl)methyl]-5-methyl-1H-pyrazole-3-carboxylic Acid] | 501 to 10000 nM | ≤ 316 nM | ≤ 100 nM
8 | CC(C)c1cc2cc(Cl)cc(Cc3cccc(C(=O)NN4CCOCC4)n3)c2o1 [Example 44, 6-{[5-Chloro-2-(1-methylethyl)-1-benzofuran-7-yl]methyl}-N-4-morpholinyl-2-pyridinecarboxammide] | 501 to 10000 nM | ≤ 316 nM | ≤ 100 nM
